Measured values published in US11479802B2, “Assays for screening activity of modulators of members of the hydroxy steroid (17-beta) dehydrogenase (HSD17B) family” (Regeneron Pharmaceuticals, Inc., priority 2017, dated 2022).

How the values were obtained:
[1] = molecular target: T1, HSD17B5 (Homo sapiens, UniProt P42330); test: Steroid substrate panel against HSD17B family member B5; assay type: biochemical; settings: substrate at 50 μM; estradiol set as 100%
T1 construct: made in house
T1 sequence (P42330 1-323): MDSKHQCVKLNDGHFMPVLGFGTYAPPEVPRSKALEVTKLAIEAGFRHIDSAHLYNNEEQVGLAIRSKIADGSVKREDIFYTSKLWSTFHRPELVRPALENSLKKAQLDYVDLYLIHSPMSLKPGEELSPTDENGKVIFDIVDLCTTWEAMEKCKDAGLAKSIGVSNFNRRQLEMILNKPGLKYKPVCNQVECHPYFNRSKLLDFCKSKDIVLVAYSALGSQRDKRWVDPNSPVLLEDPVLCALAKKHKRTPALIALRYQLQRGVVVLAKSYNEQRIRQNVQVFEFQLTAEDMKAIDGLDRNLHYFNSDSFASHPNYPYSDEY
Protocol: (§1) To understand the functional consequences of premature truncation of the HSD17B13 protein due to rs72613567:TA (the associated variant, rs72613567, is an insertion of an adenine adjacent to the donor splice site of exon six (TA allele)), the enzymatic activity of isoforms A and D was evaluated in vitro using recombinant protein and nicotinamide […] dinucleotide as cofactor. Reactions were performed in a final volume of 40 μl of assay buffer (0.2 M Tris-HCl, pH 7.5) which contained 500 μM NAD^+, 5 μM bioactive lipid or 50 μM steroid (all in a final concentration of 5% DMSO), and 100 ng of recombinant human HSD17B13. Reactions were incubated for 3 hours, at 23° C., after which an equal volume detection reagent was added. Following a 1 hour incubation at 23° C., the relative light units (RLUs) were measured on an Envision Plate Reader (Perkin Elmer). Raw RLU values were normalized as percent of control (50 μM estradiol) following subtraction of negative control (5% DMSO) using the following formula: Percent of control (POC)=100×(Sample (RLU)−Negative CTRLaverage)/(Positive CTRLaverage−Negative CTRLaverage).
(§2) In order to determine specificity of compounds with inhibitory activity against HSD17B13, assays for selected members of the HSD17B family which includes HSD17B1-HSD17B14 were established. As a first step, selected family members were expressed, purified and tested for activity a using a steroid substrate panel. Substrates from the steroid panel were tested at 50 μM, using the standard assay protocol. Activity against the substrates for each HSD17B family member were normalized to Percent of Control (POC). The control, estradiol, was set as 100%.

[2] = molecular target: T2, HSD17B10 (Homo sapiens, UniProt Q99714); test: Steroid substrate panel against HSD17B family member B10; assay type: biochemical; settings: substrate at 50 μM; estradiol set as 100%
T2 construct: made in house
T2 sequence (Q99714 1-261): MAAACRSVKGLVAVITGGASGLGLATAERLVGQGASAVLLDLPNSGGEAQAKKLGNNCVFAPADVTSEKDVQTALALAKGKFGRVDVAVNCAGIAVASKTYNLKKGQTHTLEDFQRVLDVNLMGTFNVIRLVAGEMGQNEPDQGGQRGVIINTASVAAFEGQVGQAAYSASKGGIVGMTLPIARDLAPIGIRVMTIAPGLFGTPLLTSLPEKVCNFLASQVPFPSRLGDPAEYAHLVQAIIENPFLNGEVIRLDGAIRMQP
Protocol: as §1, §2

[3] = molecular target: T3, human HSD17B13 (Homo sapiens, UniProt Q7Z5P4); test: Substrate screening of steroid and bioactive lipid libraries against purified recombinant HSD17B13 (NADH-linked luciferase assay); assay type: biochemical; settings: for HSD17B13 Enzymatic Activity Relative Light Units: 500 μM NAD+, 100 ng enzyme, 3 hours at 23° C.; for HSD17B13 Enzymatic Activity Percent Estradiol Control: normalized to 50 μM estradiol after subtraction of 5% DMSO
T3 sequence (Q7Z5P4 20-300): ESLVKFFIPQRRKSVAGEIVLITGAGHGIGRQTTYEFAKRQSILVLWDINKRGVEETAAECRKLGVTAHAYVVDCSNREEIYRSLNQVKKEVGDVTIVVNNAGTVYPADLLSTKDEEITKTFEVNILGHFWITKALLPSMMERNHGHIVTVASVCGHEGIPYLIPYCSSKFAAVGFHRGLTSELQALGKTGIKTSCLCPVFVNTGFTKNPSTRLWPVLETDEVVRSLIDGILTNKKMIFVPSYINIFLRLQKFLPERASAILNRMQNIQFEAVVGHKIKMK
How it was run: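 Recombinant human HSD17B13 (100 ng) incubated 3 h at 23° C in 0.2 M Tris-HCl pH 7.5 with 500 μM NAD+ and 5 μM bioactive lipid or 50 μM steroid (5% DMSO). NADH measured by luciferase luminescence after 1 h; values as percent of 50 μM estradiol control after 5% DMSO subtraction.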

[4] = molecular target: T4, HSD17B2 (Homo sapiens, UniProt P37059); test: Steroid substrate panel against HSD17B family member B2; assay type: biochemical; settings: substrate at 50 μM; estradiol set as 100%
T4 construct: made in house
T4 sequence (P37059 1-387): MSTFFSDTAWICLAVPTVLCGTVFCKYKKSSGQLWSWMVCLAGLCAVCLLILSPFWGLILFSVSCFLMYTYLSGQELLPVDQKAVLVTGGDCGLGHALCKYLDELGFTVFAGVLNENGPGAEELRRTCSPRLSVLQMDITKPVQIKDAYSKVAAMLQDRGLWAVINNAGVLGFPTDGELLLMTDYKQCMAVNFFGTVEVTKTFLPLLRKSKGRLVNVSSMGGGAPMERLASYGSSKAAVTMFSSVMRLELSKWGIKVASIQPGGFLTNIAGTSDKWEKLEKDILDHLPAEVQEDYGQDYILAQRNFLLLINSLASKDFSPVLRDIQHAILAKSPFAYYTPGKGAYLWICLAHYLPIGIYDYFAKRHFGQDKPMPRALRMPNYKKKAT
Protocol: as §1, §2

[5] = molecular target: T5, HSD17B4 (Homo sapiens, UniProt P51659); test: Steroid substrate panel against HSD17B family member B4; assay type: biochemical; settings: substrate at 50 μM; estradiol set as 100%
T5 construct: made in house
T5 sequence (P51659 1-736): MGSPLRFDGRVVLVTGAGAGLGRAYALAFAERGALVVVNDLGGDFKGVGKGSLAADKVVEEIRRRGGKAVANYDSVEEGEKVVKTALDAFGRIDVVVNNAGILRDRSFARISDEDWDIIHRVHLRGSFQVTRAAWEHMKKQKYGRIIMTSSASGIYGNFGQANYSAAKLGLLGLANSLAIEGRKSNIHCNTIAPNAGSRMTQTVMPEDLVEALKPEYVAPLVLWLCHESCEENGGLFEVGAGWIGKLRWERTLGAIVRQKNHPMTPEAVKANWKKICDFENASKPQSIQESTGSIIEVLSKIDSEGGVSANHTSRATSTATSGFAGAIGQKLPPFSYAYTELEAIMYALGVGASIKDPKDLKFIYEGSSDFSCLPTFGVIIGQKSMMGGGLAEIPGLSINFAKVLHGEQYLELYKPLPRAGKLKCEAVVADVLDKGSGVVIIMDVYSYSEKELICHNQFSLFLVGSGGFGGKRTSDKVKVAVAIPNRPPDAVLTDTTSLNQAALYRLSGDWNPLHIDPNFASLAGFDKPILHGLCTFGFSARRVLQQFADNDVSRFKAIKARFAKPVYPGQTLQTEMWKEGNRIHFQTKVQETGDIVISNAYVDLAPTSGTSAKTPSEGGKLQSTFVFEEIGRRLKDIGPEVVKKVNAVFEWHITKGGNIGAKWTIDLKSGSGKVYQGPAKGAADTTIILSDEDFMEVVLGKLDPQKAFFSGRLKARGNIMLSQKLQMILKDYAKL
Protocol: as §1, §2

[6] = molecular target: T6, HSD17B1 (Homo sapiens, UniProt P14061); test: Steroid substrate panel against HSD17B family member B1; assay type: biochemical; settings: substrate at 50 μM; estradiol set as 100%
T6 construct: made in house
T6 sequence (P14061 1-328): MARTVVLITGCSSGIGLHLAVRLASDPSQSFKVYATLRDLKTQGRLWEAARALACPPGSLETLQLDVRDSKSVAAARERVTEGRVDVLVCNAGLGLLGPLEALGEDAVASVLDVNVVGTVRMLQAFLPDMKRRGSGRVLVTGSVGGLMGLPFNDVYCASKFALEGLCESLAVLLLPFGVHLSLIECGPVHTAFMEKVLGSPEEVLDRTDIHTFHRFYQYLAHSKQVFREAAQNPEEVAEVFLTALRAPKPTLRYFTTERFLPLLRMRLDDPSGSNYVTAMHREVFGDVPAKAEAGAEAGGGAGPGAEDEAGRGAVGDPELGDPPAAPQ
Protocol: as §1, §2

[7] = molecular target: T7, HSD17B11 (Homo sapiens, UniProt Q8NBQ5); test: Steroid substrate panel against HSD17B family member B11; assay type: biochemical; settings: substrate at 50 μM; estradiol set as 100%
T7 construct: made in house
T7 sequence (Q8NBQ5 20-300): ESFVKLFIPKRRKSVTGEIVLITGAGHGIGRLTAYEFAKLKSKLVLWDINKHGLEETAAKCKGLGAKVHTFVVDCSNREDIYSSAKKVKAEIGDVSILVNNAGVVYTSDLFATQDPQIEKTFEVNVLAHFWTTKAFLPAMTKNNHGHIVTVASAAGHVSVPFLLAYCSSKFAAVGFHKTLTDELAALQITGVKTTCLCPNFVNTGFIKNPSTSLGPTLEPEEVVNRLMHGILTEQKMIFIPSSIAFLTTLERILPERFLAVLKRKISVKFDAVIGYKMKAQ
Protocol: as §1, §2

[8] = molecular target: T8, recombinant HSD17B13 (E20-K300) (Homo sapiens, UniProt Q7Z5P4); test: Biochemical NADH-linked screen of bioactive lipids as substrates (Example 2); settings: 5 μM substrate, 100 μM NAD+, four hours at room temperature
T8 construct: recombinant HSD17B13 (E20-K300)
T8 sequence (Q7Z5P4 20-300): T3 sequence (Q7Z5P4 20-300)
Protocol: The biochemical assay described in Example 1 was repeated using bioactive lipids as substrates. In brief, 5 μM of each substrate was incubated in 40 μL reactions containing 1 μg of recombinant HSD17B13 (E20-K300) or beta-2 microglobulin (as a negative control) and 100 μM NAD^+ in 0.2M Tris-HCl, pH 7.5. After four hours of incubation at room temperature, 10 μL of each reaction was mixed with 10 μL luciferase and read, after 40 minutes, on an Envision Plate Reader (Perkin Elmer).

Row | SMILES | Percent of Control (POC), B5 [1] [%] | Percent of Control (POC), B10 [2] [%] | HSD17B13 Enzymatic Activity Relative Light Units ([3]; Steroid Library, 50 μM steroid) [RLU] | HSD17B13 Enzymatic Activity Percent Estradiol Control ([3]; Steroid Library, 50 μM steroid) [%] | Percent of Control (POC), B2 [4] [%] | Percent of Control (POC), B4 [5] [%] | Percent of Control (POC), B1 [6] [%] | Percent of Control (POC), B11 [7] [%] | HSD17B13 Enzymatic Activity Percent Estradiol Control ([3]; Bioactive Lipid Library, 5 μM bioactive lipid) [%] | HSD17B13 Enzymatic Activity Percent Estradiol Control ([3]; Steroid Library, 50 μM steroid, listed as Beta-estradiol) [%] | HSD17B13 Enzymatic Activity Percent Estradiol Control ([3]; Steroid Library, 50 μM steroid, listed as Estradiol Control) [%] | substrate for HSD17B13 [8]
1 | C[C@]12CCC(=O)C[C@@H]1CC[C@@H]1[C@@H]2CC[C@]2(C)[C@@H](O)CC[C@@H]12 [DHT, dihydroxy testosterone (DHT)] | 0 | 3.3 | 1886360 | 30.14 | 61.2 | 37.1 | 0.4 | 12.7 | – | – | – | –
2 | C[C@]12CC[C@@H]3c4ccc(O)cc4CC[C@H]3[C@@H]1CC[C@@H]2O [Estradiol] | 100 | 100 | – | 85.76 | 100 | 100 | 100 | 100 | 100.00 | 72.17 | 100.00 | –
3 | CC1(C)[C@@H](O[C@H]2O[C@H](C(=O)O)[C@@H](O)[C@H](O)[C@H]2O[C@@H]2O[C@H](C(=O)O)[C@@H](O)[C@H](O)[C@H]2O)CC[C@]2(C)[C@H]3C(=O)C=C4[C@@H]5C[C@@](C)(C(=O)O)CC[C@]5(C)CC[C@@]4(C)[C@]3(C)CC[C@@H]12 [Glycyrrhizic acid] | 0 | 0.1 | 163600 | 0.05 | 0.0 | 0.7 | −0.1 | 32.7 | – | – | – | –
4 | C[C@H](O)[C@@]1(O)CC[C@H]2[C@@H]3CC[C@@H]4C[C@H](O)CC[C@]4(C)[C@H]3CC[C@@]21C [Pregnanetriol] | 48 | 26.4 | 163920 | 0.06 | 6.1 | 0.4 | −0.1 | 26.1 | – | – | – | –
5 | C[C@]12CC[C@H]3[C@@H](CCC4=CC(=O)CC[C@@]43C)[C@@H]1CC[C@@H]2O [Testosterone] | 0 | 4.0 | 1125600 | 16.86 | 96.2 | 84.6 | 1.1 | 10.4 | – | – | – | –
6 | C[C@]12CC[C@@H](O)C[C@H]1CC[C@@H]1[C@@H]2C(=O)C[C@@]2(C)[C@H]1CC[C@]2(O)C(=O)CO [TetrahydroCortisone] | 104 | 52.2 | 232320 | 1.25 | 1.0 | 0.5 | 0.0 | 0.0 | – | – | – | –
7 | CCCCCC[C@@H](O)C/C=C\CCCCCCCC(=O)O [ricinoleic acid] | – | – | – | – | – | – | – | – | – | – | – | identified as representative substrates
